In US10538555B2, “Macrocyclic inhibitors of the PD-1/PD-L1 and CD80(B7-1)/PD-L1 protein/protein interactions” (BRISTOL-MYERS SQUIBB COMPANY, priority 2014, dated 2020):
*1 amine or outer side, *2 acyl side, *3 side chain or, on linkers, in order; H or OH if unused. Where a SMILES comes first, the peptide text is derived from it. Bridges are numbered along the chain shown (N, C = ends). [ ]: non-standard residue; d: D form. The star is where a group is joined. ξ: configuration not given here. X10 = CC(C)C[C@H](CC(=O)[C@H](Cc1cnc[nH]1)N[*:1])C(=O)[*:2]; X5 = O=C(O)CC[C@H](N[*:1])C(=O)C1C[C@H](O)C[C@H]1C(=O)[*:2]; Phe(3,4-(OMe)2) = COc1ccc(C[C@H](N)C(=O)O)cc1OC; Pro(trans-4-F) = O=C(O)[C@@H]1C[C@@H](F)CN1; Phe(4-CN) = N#Cc1ccc(C[C@H](N)C(=O)O)cc1; Phe(4-Cl) = N[C@@H](Cc1ccc(Cl)cc1)C(=O)O; Phe(4-F) = N[C@@H](Cc1ccc(F)cc1)C(=O)O; Phe(4-Me) = Cc1ccc(C[C@H](N)C(=O)O)cc1; Hyp = O=C(O)[C@@H]1C[C@@H](O)CN1; X9 = NN[C@H](N[*:1])C(=O)[*:2]; Thr(3ξ) = CC(O)[C@H](N)C(=O)O; NMeNle = CCCC[C@H](NC)C(=O)O; NMeA = CN[C@@H](C)C(=O)O; Orn = NCCC[C@H](N)C(=O)O; Dab = NCC[C@H](N)C(=O)O; Dap = NC[C@H](N)C(=O)O; Propionyl = CCC(=O)*

What follows are compounds tested against T1, Human PD-L1/PD-1 (Homo sapiens, UniProt Q9NZQ7) (assay: HTRF Human PD-L1/PD-1 binding assay (PD-1-Ig/PD-L1-His)). Settings: PD-L1-His 10 nM, PD-1-Ig 20 nM; class symbol; read-out: HTRF Human PD-L1/PD-1 Binding Assay IC50 Range.
T1 construct: TVMV protease cleavage site (C); made in house; host or cells: HEK293T cells
Outline: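 Compound preincubated 15 min with PD-L1-His (10 nM final), then PD-1-Ig (20 nM final) added for 15 min in dPBS with 0.1% BSA and 0.05% Tween-20. Detection by Eu-cryptate anti-Ig (1 nM) and APC anti-His (20 nM) after 30 min; 665/620 nm HTRF ratio. Proteins expressed in HEK293T.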

T1 sequence (Q9NZQ7 with tags, fused parts or gaps): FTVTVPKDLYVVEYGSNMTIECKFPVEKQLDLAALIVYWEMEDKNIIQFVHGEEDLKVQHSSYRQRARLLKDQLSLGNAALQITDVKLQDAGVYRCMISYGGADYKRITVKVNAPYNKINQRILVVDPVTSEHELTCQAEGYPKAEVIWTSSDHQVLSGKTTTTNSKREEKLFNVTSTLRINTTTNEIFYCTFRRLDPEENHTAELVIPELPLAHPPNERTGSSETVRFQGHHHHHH

Row | IC50 [nM] | SMILES
1 | 1 to 9.9 | CCCC[C@H]1C(=O)N(C)[C@@H](CCCC)C(=O)N[C@@H](CCCNC(=N)N)C(=O)N[C@H](C(=O)NCC(N)=O)CSCC(=O)N[C@@H](Cc2ccc(C)cc2)C(=O)N(C)[C@@H](C)C(=O)N[C@@H](CC(N)=O)C(=O)N2CCC[C@H]2C(=O)N[C@@H](CN)C(=O)N[C@@H](CC(C)C)C(=O)N2C[C@H](O)C[C@H]2C(=O)N[C@@H](Cc2c[nH]c3ccccc23)C(=O)N[C@@H](CO)C(=O)N[C@@H](Cc2c[nH]c3ccccc23)C(=O)N1C [Example 7070] ({CH2CO}-[Phe(4-Me)][NMeA]NP[Dap]L[Hyp]WSW[NMeNle][NMeNle]RCG-NH2; thioether N-14)
2 | 1 to 9.9 | CCCC[C@H]1C(=O)N(C)[C@@H](CCCC)C(=O)N[C@@H](CCCNC(=N)N)C(=O)N[C@H](C(=O)NCC(N)=O)CSCC(=O)N[C@@H](Cc2ccc(O)cc2)C(=O)N(C)[C@@H](C)C(=O)N[C@@H](CC(N)=O)C(=O)N2CCC[C@H]2C(=O)N[C@@H](NN)C(=O)N[C@@H](CC(C)C)C(=O)N2C[C@H](O)C[C@H]2C(=O)N[C@@H](Cc2c[nH]c3ccccc23)C(=O)N[C@@H]([C@@H](C)O)C(=O)N[C@@H](Cc2c[nH]c3ccccc23)C(=O)N1C [Example 7073] ({CH2CO}-Y[NMeA]NP[X9]L[Hyp]WTW[NMeNle][NMeNle]RCG-NH2; thioether N-14)
3 | 1 to 9.9 | CCCC[C@H]1C(=O)N(C)[C@@H](CCCC)C(=O)N[C@@H](CCCNC(=N)N)C(=O)N[C@H](C(=O)NCC(N)=O)CSCC(=O)N[C@@H](Cc2ccc(O)cc2)C(=O)N(C)[C@@H](C)C(=O)N[C@@H](CC(N)=O)C(=O)N2CCC[C@H]2C(=O)N[C@@H](Cc2cnc[nH]2)C(=O)N[C@@H](CC(C)C)C(=O)N2C[C@H](O)C[C@H]2C(=O)N[C@@H](Cc2c[nH]c3ccccc23)C(=O)N[C@@H](C(C)O)C(=O)N[C@@H](Cc2c[nH]c3ccccc23)C(=O)N1C (stereo partly drawn) [Example 7075] ({CH2CO}-Y[NMeA]NPHL[Hyp]W[Thr(3ξ)]W[NMeNle][NMeNle]RCG-NH2; thioether N-14)
4 | 10 to 99.9 | CCCC[C@H]1C(=O)N(C)[C@@H](CCCC)C(=O)N[C@@H](CCCNC(=O)CC)C(=O)N[C@H](C(=O)NCC(N)=O)CSCC(=O)N[C@@H](Cc2ccc(OC)cc2)C(=O)N(C)[C@@H](C)C(=O)N[C@@H](CC(N)=O)C(=O)N2CCC[C@H]2C(=O)N[C@@H](CC(N)=O)C(=O)N[C@@H](CC(C)C)C(=O)N2C[C@H](F)C[C@H]2C(=O)N[C@@H](Cc2c[nH]c3ccccc23)C(=O)N[C@@H](C)C(=O)N[C@@H](Cc2c[nH]c3ccccc23)C(=O)N1C [Example 7083] ({CH2CO}-Y(Me)[NMeA]NPNL[Pro(trans-4-F)]WAW[NMeNle][NMeNle][Orn](Propionyl)CG-NH2; thioether N-14)
5 | 1 to 9.9 | CCCC[C@H]1C(=O)N(C)[C@@H](CCCC)C(=O)N[C@@H](CCCN)C(=O)N[C@H](C(=O)NCC(N)=O)CSCC(=O)N[C@@H](Cc2ccc(OC)cc2)C(=O)N(C)[C@@H](C)C(=O)N[C@@H](CC(N)=O)C(=O)N2CCC[C@H]2C(=O)N[C@@H](CC(N)=O)C(=O)N[C@@H](CC(C)C)C(=O)N2C[C@H](F)C[C@H]2C(=O)N[C@@H](Cc2c[nH]c3ccccc23)C(=O)N[C@@H](C)C(=O)N[C@@H](Cc2c[nH]c3ccccc23)C(=O)N1C [Example 7084] ({CH2CO}-Y(Me)[NMeA]NPNL[Pro(trans-4-F)]WAW[NMeNle][NMeNle][Orn]CG-NH2; thioether N-14)
6 | 1 to 9.9 | CCCC[C@H]1C(=O)N(C)[C@@H](CCCC)C(=O)N[C@@H](CCCNC(=N)N)C(=O)N[C@H](C(=O)NCC(N)=O)CSCC(=O)N[C@@H](Cc2ccc(OC)cc2)C(=O)N(C)[C@@H](C)C(=O)N[C@@H](CC(N)=O)C(=O)N2CCC[C@H]2C(=O)N[C@@H](Cc2cnc[nH]2)C(=O)N[C@@H](CCC(=O)O)C(=O)N2C[C@H](O)C[C@H]2C(=O)N[C@@H](Cc2c[nH]c3ccccc23)C(=O)N[C@@H](CO)C(=O)N[C@@H](Cc2c[nH]c3ccccc23)C(=O)N1C [Example 7086] ({CH2CO}-Y(Me)[NMeA]NPHE[Hyp]WSW[NMeNle][NMeNle]RCG-NH2; thioether N-14)

Second part, the compound before the results:

Row | SMILES | IC50 [nM]
7 | CCCC[C@H]1C(=O)N(C)[C@@H](CCCC)C(=O)N[C@@H](CCCNC(=N)N)C(=O)N[C@H](C(=O)NCC(N)=O)CSCC(=O)N[C@@H](Cc2ccc(C)cc2)C(=O)N(C)[C@@H](C)C(=O)N[C@@H](CC(N)=O)C(=O)N2CCC[C@H]2C(=O)N[C@@H](Cc2cnc[nH]2)C(=O)C[C@@H](CC(C)C)C(=O)N2C[C@H](O)C[C@H]2C(=O)N[C@@H](Cc2c[nH]c3ccccc23)C(=O)N[C@@H](CO)C(=O)N[C@@H](Cc2c[nH]c3ccccc23)C(=O)N1C [Example 7071] ({CH2CO}-[Phe(4-Me)][NMeA]NP[X10][Hyp]WSW[NMeNle][NMeNle]RCG-NH2; thioether N-13) | 1 to 9.9
8 | CCCC[C@H]1C(=O)N(C)[C@@H](CCCC)C(=O)N[C@@H](CCCNC(=N)N)C(=O)N[C@H](C(=O)NCC(N)=O)CSCC(=O)N[C@@H](Cc2ccc(OC)c(OC)c2)C(=O)N(C)[C@@H](C)C(=O)N[C@@H](CC(N)=O)C(=O)N2CCC[C@H]2C(=O)N[C@@H](Cc2cnc[nH]2)C(=O)N[C@@H](CC(C)C)C(=O)N2C[C@H](O)C[C@H]2C(=O)N[C@@H](Cc2c[nH]c3ccccc23)C(=O)N[C@@H](CO)C(=O)N[C@@H](Cc2c[nH]c3ccccc23)C(=O)N1C [Example 7072] ({CH2CO}-[Phe(3,4-(OMe)2)][NMeA]NPHL[Hyp]WSW[NMeNle][NMeNle]RCG-NH2; thioether N-14) | 1 to 9.9
9 | CCCC[C@H]1C(=O)N(C)[C@@H](CCCC)C(=O)N[C@@H](CCCNC(=N)N)C(=O)N[C@H](C(=O)NCC(N)=O)CSCC(=O)N[C@@H](Cc2ccc(C#N)cc2)C(=O)N(C)[C@@H](C)C(=O)N[C@@H](CC(N)=O)C(=O)N2CCC[C@H]2C(=O)N[C@@H](Cc2cnc[nH]2)C(=O)N[C@@H](CCC(=O)O)C(=O)C2C[C@H](O)C[C@H]2C(=O)N[C@@H](Cc2c[nH]c3ccccc23)C(=O)N[C@@H](CCN)C(=O)N[C@@H](Cc2c[nH]c3ccccc23)C(=O)N1C (stereo partly drawn) [Example 7077] ({CH2CO}-[Phe(4-CN)][NMeA]NPH[X5]W[Dab]W[NMeNle][NMeNle]RCG-NH2; thioether N-13) | 1 to 9.9
10 | CCCC[C@H]1C(=O)N(C)[C@@H](CCCC)C(=O)N[C@@H](CCCNC(=N)N)C(=O)N[C@H](C(=O)NCC(N)=O)CSCC(=O)N[C@@H](Cc2ccc(C#N)cc2)C(=O)N(C)[C@@H](C)C(=O)N[C@@H](CC(N)=O)C(=O)N2CCC[C@H]2C(=O)N[C@@H](Cc2cnc[nH]2)C(=O)N[C@@H](CCC(=O)O)C(=O)N2C[C@H](O)C[C@H]2C(=O)N[C@@H](Cc2c[nH]c3ccccc23)C(=O)N[C@@H](CO)C(=O)N[C@@H](Cc2c[nH]c3ccccc23)C(=O)N1C [Example 7078] ({CH2CO}-[Phe(4-CN)][NMeA]NPHE[Hyp]WSW[NMeNle][NMeNle]RCG-NH2; thioether N-14) | 10 to 99.9
11 | CCCC[C@H]1C(=O)N(C)[C@@H](CCCC)C(=O)N[C@@H](CCCNC(=N)N)C(=O)N[C@H](C(=O)NCC(N)=O)CSCC(=O)N[C@@H](Cc2ccc(Cl)cc2)C(=O)N(C)[C@@H](C)C(=O)N[C@@H](CC(N)=O)C(=O)N2CCC[C@H]2C(=O)N[C@@H](Cc2cnc[nH]2)C(=O)N[C@@H](CCC(=O)O)C(=O)C2C[C@H](O)C[C@H]2C(=O)N[C@@H](Cc2c[nH]c3ccccc23)C(=O)N[C@@H](CCN)C(=O)N[C@@H](Cc2c[nH]c3ccccc23)C(=O)N1C (stereo partly drawn) [Example 7079] ({CH2CO}-[Phe(4-Cl)][NMeA]NPH[X5]W[Dab]W[NMeNle][NMeNle]RCG-NH2; thioether N-13) | 1 to 9.9
12 | CCCC[C@H]1C(=O)N(C)[C@@H](CCCC)C(=O)N[C@@H](CCCNC(=N)N)C(=O)N[C@H](C(=O)NCC(N)=O)CSCC(=O)N[C@@H](Cc2ccc(Cl)cc2)C(=O)N(C)[C@@H](C)C(=O)N[C@@H](CC(N)=O)C(=O)N2CCC[C@H]2C(=O)N[C@@H](Cc2cnc[nH]2)C(=O)N[C@@H](CCC(=O)O)C(=O)N2C[C@H](O)C[C@H]2C(=O)N[C@@H](Cc2c[nH]c3ccccc23)C(=O)N[C@@H](CO)C(=O)N[C@@H](Cc2c[nH]c3ccccc23)C(=O)N1C [Example 7080] ({CH2CO}-[Phe(4-Cl)][NMeA]NPHE[Hyp]WSW[NMeNle][NMeNle]RCG-NH2; thioether N-14) | 10 to 99.9
13 | CCCC[C@H]1C(=O)N(C)[C@@H](CCCC)C(=O)N[C@@H](CCCNC(=N)N)C(=O)N[C@H](C(=O)NCC(N)=O)CSCC(=O)N[C@@H](Cc2ccc(F)cc2)C(=O)N(C)[C@@H](C)C(=O)N[C@@H](CC(N)=O)C(=O)N2CCC[C@H]2C(=O)N[C@@H](Cc2cnc[nH]2)C(=O)N[C@@H](CCC(=O)O)C(=O)N2C[C@H](O)C[C@H]2C(=O)N[C@@H](Cc2c[nH]c3ccccc23)C(=O)N[C@@H](CCN)C(=O)N[C@@H](Cc2c[nH]c3ccccc23)C(=O)N1C [Example 7081] ({CH2CO}-[Phe(4-F)][NMeA]NPHE[Hyp]W[Dab]W[NMeNle][NMeNle]RCG-NH2; thioether N-14) | 1 to 9.9
14 | CCCC[C@H]1C(=O)N(C)[C@@H](CCCC)C(=O)N[C@@H](CCCNC(=N)N)C(=O)N[C@H](C(=O)NCC(N)=O)CSCC(=O)N[C@@H](Cc2ccc(F)cc2)C(=O)N(C)[C@@H](C)C(=O)N[C@@H](CC(N)=O)C(=O)N2CCC[C@H]2C(=O)N[C@@H](Cc2cnc[nH]2)C(=O)N[C@@H](CCC(=O)O)C(=O)N2C[C@H](O)C[C@H]2C(=O)N[C@@H](Cc2c[nH]c3ccccc23)C(=O)N[C@@H](CO)C(=O)N[C@@H](Cc2c[nH]c3ccccc23)C(=O)N1C [Example 7082] ({CH2CO}-[Phe(4-F)][NMeA]NPHE[Hyp]WSW[NMeNle][NMeNle]RCG-NH2; thioether N-14) | 1 to 9.9
15 | CCCC[C@H]1C(=O)N(C)[C@@H](CCCC)C(=O)N[C@@H](CCCNC(=N)N)C(=O)N[C@H](C(=O)NCC(N)=O)CSCC(=O)N[C@@H](Cc2ccc(OC)cc2)C(=O)N(C)[C@@H](C)C(=O)N[C@@H](CC(N)=O)C(=O)N2CCC[C@H]2C(=O)N[C@@H](Cc2cnc[nH]2)C(=O)N[C@@H](CCC(=O)O)C(=O)C2C[C@H](O)C[C@H]2C(=O)N[C@@H](Cc2c[nH]c3ccccc23)C(=O)N[C@@H](CCN)C(=O)N[C@@H](Cc2c[nH]c3ccccc23)C(=O)N1C (stereo partly drawn) [Example 7085] ({CH2CO}-Y(Me)[NMeA]NPH[X5]W[Dab]W[NMeNle][NMeNle]RCG-NH2; thioether N-13) | 1 to 9.9
